Measurements taken from patent publication US20260125356A1, “TREATMENT OF LEISHMANIASIS” (THE UNIVERSITY OF DURHAM, priority 2022, published 2026).
Values after ≈ are worked out from the molar mass of the structure shown. Like-named read-outs stand apart in the source and are kept apart here.

Key:
L. major promastigotes = assay: L. major promastigote dose response assay (alamarBlue/resazurin); format: cell-based; conditions: for EC50: 44 hrs + 4 hrs alamarBlue/resazurin, 26° C.
Method: Using a standard alamarBlue™ assay, activity and selectivity were assessed using L. major promastigotes and HepG2 cells, respectively.
All parasite and human cell cultures were grown and manipulated following biosafety level 2 instructions under sterile conditions. L. major FV1, L. amazonensis (MHOM/Br/75/JOSEFA), L. donovani BOB (derived from MHOM/SD/62/1S-CL2D), T. brucei (90-13, 427 strain) and T. cruzi (Dm28c) were used throughout.
All steps were carried out under sterile conditions. Frozen stocks of the relevant Leishmania promastigote species were thawed rapidly and added to Schneider's media. Promastigotes were grown at 26° C. in Nunc EasYFlask 25 cm^2 Nunclon Delta Surface (ThermoScientific) and frozen stocks were prepared on low passage cultures (p2-4) by pelleting the cells by centrifugation and resuspending in Schneider's media with 10% DMSO. The cultures were aliquoted into cryovials (Starlab) and cooled slowly to −150° C. for long term storage.
All steps were carried out under sterile conditions. […] Cycloheximide or amphotericin B were used as positive controls and 2% DMSO was used as a negative control. alamarBlue® (ThermoFisher scientific) or resazurin solution was added to each well and incubated for a further 4 hrs at 26° C. Cell-viability was determined using a BioTek™ FLx800 microplate reader with Gen5® 1.08 data analysis software (BioTek) by monitoring fluorescence emission (λex 560/λem 590 nm). Dose response curves were fitted using sigmoidal regression analysis (GraphPad Prism 8 software) and used to calculate EC50 values.

[1] = test system: L. amazonensis promastigotes; assay: L. amazonensis promastigote dose response assay (alamarBlue/resazurin); format: cell-based; conditions: 44 hrs + 4 hrs alamarBlue/resazurin, 26° C., read-out: EC50 (L. amaz)/μM
Kinetic solubility = conditions: PBS, aqueous buffer, kinetic from dmso stock
Source text: All chemicals and solvents were sourced from commercial suppliers. Buffers were made up using purified water from a MilliQ® water purification system. Biorelevant buffers (FESSIF, FASSIF and FASSGF) were purchased from Biorelevant and made up according to manufacturer's instructions. 15% FBS (heat inactivated, South American origin, ThermoFisher scientific) in PBS (Fisher Scientific) was filter sterilised (0.22 μm Fisherbrand™ Sterile PES Syringe Filter, Fisher Scientific) before use. Sodium taurocholate was purchased from Merck.
λmax was determined for each compound from the UV-Vis absorption spectrum of a 200 LIM compound solution in buffer of interest using a Varian Cary® 100 UV-Vis Spectrophotometer. A calibration curve of λmax VS concentration was obtained by serial dilution of compound from 200 μM in the buffer of interest, correcting for background buffer absorption. For each sample, a DMSO solution of compound was incubated in buffer of interest (<5% DMSO) for 2 hrs at RT. The solution was filtered (0.22 μm Fisherbrand™ Sterile PES Syringe Filter, Fisher Scientific) or centrifuged (14,500 rpm, 10 min) to remove undissolved debris and the supernatant was removed and diluted as required. The corrected UV absorption of the supernatant at Amax Was measured using a Varian Cary® 100 UV-Vis Spectrophotometer and compared to the calibration curve to determine compound solubility.

Compound: 5′-amino-N-[3-(methylcarbamoyl)thiophen-2′-yl]thiophene-2-carboxamide [Compound 8]
- EC50 (L. major promastigotes): > 100 µM

Compound: 5′-bromo-N-[3-(methylcarbamoyl)thiophen-2-yl]thiophene-2′-carboxamide [Compound 7]
- EC50 (L. major promastigotes): > 100 µM
- EC50 [1]: > 100 µM

Compound: O=C(N[C@H]1CCC[C@H]1C(=O)O)c1ccc([N+](=O)[O-])s1 (racemic) [Compound 23, ±syn 2-(5′-nitrothiophene-2′-amido)cyclopentane-1-carboxylic acid]
- EC50 (L. major promastigotes): > 100 µM
- EC50 [1]: 52 µM

Compound: O=C(NC1CCCC1C(=O)O)c1ccc([N+](=O)[O-])s1 (racemic) [Compound 24, ±anti 2-(5′-nitrothiophene-2′-amido)cyclopentane-1-carboxylic acid]
- EC50 (L. major promastigotes): > 100 µM
- EC50 [1]: > 100 µM

Compound: CNC(=O)c1ccsc1NC(=O)c1cccs1 [Compound 6, N-methyl-2-(thiophene-2′-amido)thiophene-3-carboxamide]
- EC50 (L. major promastigotes; Leishmania major, 48 h): > 100 µM
- EC50 ([1]; Leishmania amazonensis, 48 h): > 100 µM

Compound: CNC(=O)c1ccsc1NC(=O)c1cnc(Cl)s1 [Compound 9, N-[3-(methylcarbamoyl)thiophen-2-yl]-2′-chloro-1′,3′-thiazole-5′-carboxamide]
- EC50 (L. major promastigotes; Leishmania major, 48 h): 33 ± 10 µM

Compound: CNC(=O)c1ccsc1NC(=O)c1ccccc1 [Compound 10, 2-benzamido-N-methylthiophene-3-carboxamide]
- EC50 (L. major promastigotes; Leishmania major, 48 h): 75 ± 5 µM
- EC50 ([1]; Leishmania amazonensis, 48 h): 55 ± 5 µM

Compound: CNC(=O)c1ccsc1NC(=O)c1nccs1 [Compound 11, N-[3-(methylcarbamoyl)thiophen-2-yl]-1′,3′-thiazole-2′-carboxamide]
- EC50 (L. major promastigotes; Leishmania major, 48 h): 78 ± 2 µM
- EC50 ([1]; Leishmania amazonensis, 48 h): > 100 µM

Compound: CNC(=O)c1ccsc1NC(=O)c1cncs1 [Compound 12, N-[3-(methylcarbamoyl)thiophen-2-yl]-1′,3′-thiazole-5′-carboxamide]
- EC50 (L. major promastigotes; Leishmania major, 48 h): 88 ± 6 µM
- EC50 ([1]; Leishmania amazonensis, 48 h): 53 ± 3 µM

Compound: CNC(=O)c1ccsc1NC(=O)c1cscn1 [Compound 13, N-[3-(methylcarbamoyl)thiophen-2-yl]-1′,3′-thiazole-4′-carboxamide]
- EC50 (L. major promastigotes; Leishmania major, 48 h): > 100 µM
- EC50 ([1]; Leishmania amazonensis, 48 h): 93 ± 7 µM

Compound: CNC(=O)c1ccsc1NC(=O)c1ccncc1 [Compound 14, N-[3-(methylcarbamoyl)thiophen-2-yl]pyridine-4′-carboxamide]
- EC50 (L. major promastigotes; Leishmania major, 48 h): 82 ± 1 µM
- EC50 ([1]; Leishmania amazonensis, 48 h): 45 ± 5 µM

Compound: CNC(=O)c1ccsc1NC(=O)c1cccnc1 [Compound 15, N-[3-(methylcarbamoyl)thiophen-2-yl]pyridine-3′-carboxamide]
- EC50 (L. major promastigotes; Leishmania major, 48 h): 82 ± 7 µM
- EC50 ([1]; Leishmania amazonensis, 48 h): 59 ± 2 µM

Compound: CNC(=O)c1ccsc1NC(=O)c1ccc2nonc2c1 [Compound 16, N-[3-(methylcarbamoyl)thiophen-2-yl]-2,1,3-benzoxadiazole-5′-carboxamide]
- EC50 (L. major promastigotes; Leishmania major, 48 h): > 100 µM
- EC50 ([1]; Leishmania amazonensis, 48 h): > 100 µM

Compound: CNC(=O)c1ccsc1NC(=O)c1cccc([N+](=O)[O-])c1 [Compound 18, N-methyl-2-(3′-nitrobenzamido)thiophene-3-carboxamide]
- EC50 (L. major promastigotes; Leishmania major, 48 h): > 100 µM
- EC50 ([1]; Leishmania amazonensis, 48 h): > 100 µM

Compound: CNC(=O)c1ccsc1NC(=O)c1ccc([N+](=O)[O-])cc1 [Compound 19, N-methyl 2-(4′-nitrobenzamido)thiophene-3-carboxamide]
- EC50 (L. major promastigotes; Leishmania major, 48 h): > 100 µM
- EC50 ([1]; Leishmania amazonensis, 48 h): > 100 µM

Compound: CNC(=O)c1ccsc1NC(=O)c1ccc([N+](=O)[O-])cc1C(F)(F)F [Compound 20, N-methyl-2-[4′-nitro-2′-(trifluoromethyl)benzamido]thiophene-3-carboxamide]
- EC50 (L. major promastigotes; Leishmania major, 48 h): 16.6 ± 0.2 µM
- improvement in antileishmanial activity compared to 19 (L. major promastigotes; Table 2): > 3 fold
- EC50 ([1]; Leishmania amazonensis, 48 h): 38.7 µM

Compound: CCOC(=O)C1CCCC1NC(=O)c1ccc([N+](=O)[O-])s1 (stereo not drawn) [Compound 21, syn-ethyl-2-(5′-nitrothiophene-2′-amido)cyclopentane-1-carboxylate]
- EC50 (L. major promastigotes): 22 µM
- EC50 [1]: 9.7 µM

Compound: CCOC(=O)C1CCCC1NC(=O)c1ccc([N+](=O)[O-])s1 (stereo not drawn) [Compound 22, anti-ethyl-2-(5′-nitrothiophene-2′-amido)cyclopentane-1-carboxylate]
- EC50 (L. major promastigotes): 10 µM
- EC50 [1]: 13 µM

Compound: CCOC(=O)C1=C(NC(=O)c2ccc([N+](=O)[O-])s2)CCC1 [Compound 26, Ethyl 2-(5′-nitrothiophene-2′-amido)cyclopent-1-ene-1-carboxylate]
- EC50 (L. major promastigotes; Leishmania major, 48 h): 0.46 µM
- EC50 ([1]; Leishmania amazonensis, 48 h): 0.72 µM

Compound: O=C(Nc1ccccc1C(=O)O)c1ccc([N+](=O)[O-])s1 [Compound 29, 2-(5′-nitrothiophene-2′-amido)benzoic acid]
- EC50 (L. major promastigotes; Leishmania major, 48 h): 46 µM

Compound: COc1ccccc1NC(=O)c1ccc([N+](=O)[O-])s1 [Compound 30, N-(2-methoxyphenyl)-5′-nitrothiophene-2′-carboxamide]
- EC50 (L. major promastigotes): 6.3 µM

Compound: O=C(Nc1ccccc1C(F)(F)F)c1ccc([N+](=O)[O-])s1 [Compound 31, 5′-nitro-N-[2-(trifluoromethyl)phenyl]thiophene-2′-carboxamide]
- EC50 (L. major promastigotes): 8.3 µM
- EC50 [1]: 4.24 µM

Compound: CC(=O)c1ccccc1NC(=O)c1ccc([N+](=O)[O-])s1 [Compound 32, N-(2-acetylphenyl)-5′-nitrothiophene-2′-carboxamide]
- EC50 (L. major promastigotes): 16 µM

Compound: CNC(=O)c1cccc(Nc2ccc([N+](=O)[O-])s2)c1 [Compound 34, N-methyl-3-[(5′-nitrothiophen-2′-yl)amino]benzamide]
- EC50 (L. major promastigotes): 3.5 µM
- EC50 [1]: 0.26 µM

Compound: COc1cccc(NC(=O)c2ccc([N+](=O)[O-])s2)c1 [Compound 35, N-(3-methoxyphenyl)-5′-nitrothiophene-2′-carboxamide]
- EC50 (L. major promastigotes): 3.9 µM

Compound: COc1ccc(NC(=O)c2ccc([N+](=O)[O-])s2)cc1 [Compound 36, N-(4-methoxyphenyl)-5′-nitrothiophene-2′-carboxamide]
- EC50 (L. major promastigotes): 3.45 µM

Compound: O=C(Nc1cccc(C(F)(F)F)c1)c1ccc([N+](=O)[O-])s1 [Compound 37, 5′-nitro-N-[3-(trifluoromethyl)phenyl]thiophene-2′-carboxamide]
- EC50 (L. major promastigotes): 3.5 µM
- EC50 [1]: 2.22 µM

Compound: CC(C)NC(=O)c1ccccc1NC(=O)c1ccc([N+](=O)[O-])s1 [Compound 38, 5′-nitro-N-{[(propan-2-yl)carbamoyl]-2-phenyl}thiophene-2′-carboxamide]
- EC50 (L. major promastigotes): 4 µM

Compound: CCCCCCCCCCCCCNC(=O)c1ccccc1NC(=O)c1ccc([N+](=O)[O-])s1 [Compound 39, 5′-nitro-N-[2-(tridecylcarbamoyl)phenyl]thiophene-2′-carboxamide]
- EC50 (L. major promastigotes): > 100 µM

Compound: CNC(=O)c1c(C)cccc1NC(=O)c1ccc([N+](=O)[O-])s1 [Compound 40, N-[3-methyl-2-(methylcarbamoyl)phenyl]-5′-nitrothiophene-2′-carboxamide]
- EC50 (L. major promastigotes): 8.5 µM

Compound: CNC(=O)c1cc(OC)ccc1NC(=O)c1ccc([N+](=O)[O-])s1 [Compound 41, N-[4-methoxy-2-(methylcarbamoyl)phenyl]-5′-nitrothiophene-2′-carboxamide]
- EC50 (L. major promastigotes): 16 µM

Compound: CNC(=O)c1cc(C)ccc1NC(=O)c1ccc([N+](=O)[O-])s1 [Compound 42, N-[4-methyl-2-(methylcarbamoyl)phenyl]-5′-nitrothiophene-2′-carboxamide]
- EC50 (L. major promastigotes): 2.7 µM

Compound: NC(=O)c1ccccc1CNC(=O)c1ccc([N+](=O)[O-])s1 [Compound 47, N-(2-carbamoylbenzyl)-5′-nitrothiophene-2′-carboxamide]
- EC50 (L. major promastigotes; Leishmania major, 48 h): 21 ± 3 µM
- solubility at 2 h (Kinetic solubility): 179 ± 8 µM (≈ 54.7 µg/mL)

Compound: CNC(=O)c1ccsc1N(C)C(=O)c1ccc([N+](=O)[O-])s1 [Compound 48, N-methyl-2-(N-methyl-5′-nitrothiophene-2′-amido)thiophene-3-carboxamide]
- EC50 (L. major promastigotes; Leishmania major, 48 h): 9.6 ± 0.7 µM
- solubility at 2 h (Kinetic solubility): 190 ± 20 µM (≈ 61.8 µg/mL)

Compound: O=C(c1ccc([N+](=O)[O-])s1)N1CCCc2ccccc21 [Compound 49, 1-(5′-nitrothiophene-2′-carbonyl)-1,2,3,4-tetrahydroquinoline]
- EC50 (L. major promastigotes; Leishmania major, 48 h): 11.1 ± 0.3 µM
- solubility at 2 h (Kinetic solubility): 151 ± 3 µM (≈ 43.5 µg/mL)

Compound: CN(C)C(=O)c1ccccc1NC(=O)c1ccc([N+](=O)[O-])s1 [Compound 56, N-[2-(dimethylcarbamoyl)phenyl]-5′-nitrothiophene-2′-carboxamide]
- EC50 (L. major promastigotes; Leishmania major, 48 h): 17 µM
- EC50 ([1]; Leishmania amazonensis, 48 h): 6.3 µM

Compound: O=c1oc(-c2ccc([N+](=O)[O-])s2)nc2ccccc12 [Compound 57, 2-(5′-nitrothiophen-2′-yl)-4H-3,1-benzoxazin-4-one]
- EC50 (L. major promastigotes; Leishmania major, 48 h): 38 µM
